Test results from ChEMBL document CHEMBL5724914, “Linking interpersonal differences in gut microbiota composition and drug biotransformation activity” (2024).

Legend:
[1] = (§1) The drug is tested on Z-003 corresponding to pig gut metagenome with ENA study accession number: PRJEB37062 and ENA sample accession number: ERS12561803 for biotransformation under anaerobic condition. The drug concentrations were measured over 9 timepoints collected between 0 and 24 hours of incubation by liquid-chromatography-coupled mass spectrometry (LC–MS); details: 2 µM
[2] = as §1, with “Z-023” for “Z-003”, “to” for “to pig gut”, “ERS12561822” for “ERS12561803”; details: 2 µM
[3] = as §1, with “Z-025” for “Z-003”, “rabbit” for “pig”, “ERS12561824” for “ERS12561803”; details: 2 µM
[4] = as §1, with “Z-008” for “Z-003”, “to” for “to pig gut”, “ERS12561808” for “ERS12561803”; details: 2 µM
[5] = human gut metagenome, 24 h, 2 µM
[6] = as §1, with “Z-013” for “Z-003”, “rabbit” for “pig”, “ERS12561813” for “ERS12561803”; details: 2 µM
[7] = as §1, with “Z-001” for “Z-003”, “mouse” for “pig”, “ERS12561801” for “ERS12561803”; details: 2 µM
[8] = as §1, with “Z-006” for “Z-003”, “mouse” for “pig”, “ERS12561806” for “ERS12561803”; details: 2 µM
[9] = as §1, with “Z-010” for “Z-003”, “to” for “to pig gut”, “ERS12561810” for “ERS12561803”; details: 2 µM
[10] = as §1, with “Z-011” for “Z-003”, “mouse” for “pig”, “ERS12561811” for “ERS12561803”; details: 2 µM
[11] = as §1, with “Z-021” for “Z-003”, “to” for “to pig gut”, “ERS12561820” for “ERS12561803”; details: 2 µM
[12] = as §1, with “Z-026” for “Z-003”, “to” for “to pig gut”, “ERS12561825” for “ERS12561803”; details: 2 µM
[13] = as §1, with “Z-018” for “Z-003”, “ERS12561817” for “ERS12561803”; details: 2 µM
[14] = as §1, with “Z-004” for “Z-003”, “to” for “to pig gut”, “ERS12561804” for “ERS12561803”; details: 2 µM
[15] = as §1, with “Z-016” for “Z-003”, “mouse” for “pig”, “ERS12561815” for “ERS12561803”; details: 2 µM
[16] = as §1, with “Z-027” for “Z-003”, “to” for “to pig gut”, “ERS12561826” for “ERS12561803”; details: 2 µM
[17] = as §1, with “Z-009” for “Z-003”, “ERS12561809” for “ERS12561803”; details: 2 µM
[18] = as §1, with “Z-020” for “Z-003”, “rabbit” for “pig”, “ERS12561819” for “ERS12561803”; details: 2 µM
[19] = human gut metagenome, 24 h, 2 µM; remark: listed apart in the source
[20] = as §1, with “Z-005” for “Z-003”, “to” for “to pig gut”, “ERS12561805” for “ERS12561803”; details: 2 µM
[21] = as §1, with “Z-019” for “Z-003”, “rat” for “pig”, “ERS12561818” for “ERS12561803”; details: 2 µM
[22] = as §1, with “Z-029” for “Z-003”, “rat” for “pig”, “ERS12561828” for “ERS12561803”; details: 2 µM
[23] = human gut metagenome, 24 h, 2 µM; remark: listed apart in the source
[24] = as §1, with “Z-030” for “Z-003”, “mouse” for “pig”, “ERS12561829” for “ERS12561803”; details: 2 µM
[25] = as §1, with “Z-022” for “Z-003”, “mouse” for “pig”, “ERS12561821” for “ERS12561803”; details: 2 µM
[26] = human gut metagenome, 24 h, 2 µM; remark: listed apart in the source
[27] = human gut metagenome, 24 h, 2 µM; remark: listed apart in the source
[28] = as §1, with “Z-002” for “Z-003”, “rabbit” for “pig”, “ERS12561802” for “ERS12561803”; details: 2 µM
[29] = as §1, with “Z-014” for “Z-003”, “rat” for “pig”, “ERS12561814” for “ERS12561803”; details: 2 µM
[30] = human gut metagenome, 24 h, 2 µM; remark: listed apart in the source
[31] = as §1, with “WLS-220” for “Z-003”, “human” for “pig”, “ERS12561769” for “ERS12561803”; details: 2 µM
[32] = as §1, with “Z-028” for “Z-003”, “mouse” for “pig”, “ERS12561827” for “ERS12561803”; details: 2 µM
[33] = as §1, with “Z-024” for “Z-003”, “ERS12561823” for “ERS12561803”; details: 2 µM
[34] = as §1, with “Z-012” for “Z-003”, “to” for “to pig gut”, “ERS12561812” for “ERS12561803”; details: 2 µM
[35] = as §1, with “Z-017” for “Z-003”, “mouse” for “pig”, “ERS12561816” for “ERS12561803”; details: 2 µM
[36] = as §1, with “Z-007” for “Z-003”, “rat” for “pig”, “ERS12561807” for “ERS12561803”; details: 2 µM
Further: call rule not given here.

With `CCN(CC)C(=O)/C(C#N)=C/c1cc(O)c(O)c([N+](=O)[O-])c1` [ENTACAPONE] the “Bacterial Biotransformation” value [1] was “Compound metabolized”, the “Bacterial Biotransformation” value [2] was “Compound metabolized” and the “Bacterial Biotransformation” value [3] was “Compound metabolized”. For the same compound, the “Bacterial Biotransformation” value [4] was “Compound metabolized”, the “Bacterial Biotransformation” value [5] was “Compound metabolized” and the “Bacterial Biotransformation” value [6] was “Compound metabolized”. The “Bacterial Biotransformation” value [7] was “Compound metabolized”, the “Bacterial Biotransformation” value [8] was “Compound metabolized” and the “Bacterial Biotransformation” value [9] was “Compound metabolized”. The “Bacterial Biotransformation” value [10] was “Compound metabolized”, the “Bacterial Biotransformation” value [11] was “Compound metabolized” and the “Bacterial Biotransformation” value [12] was “Compound metabolized”. For the same compound, the “Bacterial Biotransformation” value [13] was “Compound metabolized”, the “Bacterial Biotransformation” value [14] was “Compound metabolized” and the “Bacterial Biotransformation” value [15] was “Compound metabolized”. The “Bacterial Biotransformation” value [16] was “Compound metabolized”, the “Bacterial Biotransformation” value [17] was “Compound metabolized” and the “Bacterial Biotransformation” value [18] was “Compound metabolized”. For the same compound, the “Bacterial Biotransformation” value [19] was “Compound metabolized”, the “Bacterial Biotransformation” value [20] was “Compound metabolized” and the “Bacterial Biotransformation” value [21] was “Compound NOT metabolized”. The “Bacterial Biotransformation” value [22] was “Compound metabolized”, the “Bacterial Biotransformation” value [23] was “Compound NOT metabolized” and the “Bacterial Biotransformation” value [24] was “Compound metabolized”. For the same compound, the “Bacterial Biotransformation” value [25] was “Compound metabolized”, the “Bacterial Biotransformation” value [26] was “Compound metabolized” and the “Bacterial Biotransformation” value [27] was “Compound metabolized”. For the same compound, the “Bacterial Biotransformation” value [28] was “Compound metabolized”, the “Bacterial Biotransformation” value [29] was “Compound metabolized” and the “Bacterial Biotransformation” value [30] was “Compound metabolized”. For the same compound, the “Bacterial Biotransformation” value [31] was “Compound NOT metabolized”, the “Bacterial Biotransformation” value [32] was “Compound metabolized” and the “Bacterial Biotransformation” value [33] was “Compound metabolized”. For the same compound, the “Bacterial Biotransformation” value [34] was “Compound metabolized”, the “Bacterial Biotransformation” value [35] was “Compound metabolized” and the “Bacterial Biotransformation” value [36] was “Compound metabolized”.
